Laboratory results reported in US10087142B2, “Azetidine derivatives useful as modulators of cortical cathecolaminergic neurotransmission” (Integrative Research Laboratories Sweden AB, priority 2015, dated 2018).
Where two headings read alike, the source gives them in different places. Marks after values point to notes of the source that are not given here.

How the values were obtained:
[1] = system: non-pre-treated Sprague-Dawley rats; assay: Locomotor activity in drug-naïve rats (behaviour test); format: in vivo, rat; conditions: recorded 60 minutes, n = 5
Experimental: The effect of compounds in the present disclosure on locomotor activity in drug-naïve rats was also investigated. The animals were placed in the motility meters immediately after drug administration and locomotor activity was recorded for 60 minutes (counts/60 min±SEM). The results are presented as percent of control.
Behavioural activity was measured using eight Digiscan activity monitors (RXYZM (16) TAO, Omnitech Electronics, Columbus, Ohio, USA), connected to an Omnitech Digiscan analyzer and an Apple Macintosh computer equipped with a digital interface board (NB DIO-24, National Instruments, USA). Each activity monitor consisted of a quadratic metal frame (W×L=40 cm×40 cm) equipped with photo beam sensors. During measurements of behavioural activity, a rat was put in a transparent acrylic cage (W×L×H, 40×40×30 cm) which in turn was placed in the activity monitor. Each activity monitor was equipped with three rows of infrared photo beam sensors, each row consisting of 16 sensors. Two rows were placed along the front and the side of the floor of the cage, at a 90° angle, and the third row was placed 10 cm above the floor to measure vertical activity. Photo beam sensors were spaced 2.5 cm apart. Each activity monitor was fitted in an identical sound and light attenuating box containing a weak house light and a fan.
The computer software was written using object oriented programming (LabVIEW™, National instruments, Austin, Tex., USA).
Behavioural data from each activity monitor, representing the position (horizontal center of gravity and vertical activity) of the animal at each time, were recorded at a sampling frequency of 25 Hz and collected using a custom written LABView™ application. The data from each recording session were stored and analyzed with respect to distance traveled. Each behavioural recording session lasted 60 min, starting approximately 5 min after the injection of test compound.
Compounds disclosed herein have been tested for effects on spontaneous locomotor activity in non-pre-treated Sprague-Dawley rats (based on accumulated distance traveled 0-60 min post dosing), and with doses up to 33 μmol/kg (s.c.).

[2] = system: monoamine transmitters (NA, DA and 5-HT); assay: In vivo brain microdialysis of monoamines in striatum and frontal cortex; set-up: species or system rat; conditions: rats; for response vs control in vivo at 16.7 µmol/kg: Rattus norvegicus, sc
From the text: The microdialysis technique (See, for instance, Collin and Ungerstedt, Microdialysis: user's guide, Carnegie Medicin, Stockholm, 1988) is a well-established technique for measuring extracellular levels of neurotransmitters (Ungerstedt, J Int Med, 1991, 230; 365-73). The microdialysis technique was used to measure the effect of compounds disclosed herein upon the efflux of monoamine transmitters (NA, DA and 5-HT) in striatum and frontal cortex in conscious, freely moving rats.
Male Sprague-Dawley rats weighing 280-320 g were used throughout the experiments. Before the experiment the animals were housed in groups, maximum five animals in each cage, with free access to water and food. The animals were housed at least one week prior to surgery and use in the experiments.
A modified version (Waters et al., J Neural Transm Gen Sect, 1994, 98(1); 39-55) of the I-shaped probe (Santiago and Westerink, N-S Arch Pharmacol, 1990, 342; 407-14) with the AN69 polyacrylonitrile/sodium methyl sulfonate copolymer (HOSPAL; o.d/i.d. 310/220 μm: dialysis membrane (Gambro, Lund, Sweden) was used in the microdialysis experiments. In the dorsal striatum, probes with an exposed length of 3 mm of dialysis membrane were used and in the prefrontal cortex the corresponding length was 2.5 mm. The rats were operated under isoflurane inhalation anesthesia while mounted into a Kopf stereotaxic instrument. Coordinates were calculated relative to bregma; dorsal striatum AP+1.0, ML±2.6, DV 6.2; Pf cortex, AP 15+3.2, ML+1.2, DV −4.08°, according to Paxinos and Watson (New York, Academic Press, 1986; FIG. 8 and FIG. 14). The dialysis probe was positioned in a burr hole under stereotaxic guidance and cemented with phosphatine dental cement (DAB Dental).
The rats were housed individually in cages for 48 h before the dialysis experiments, allowing them to recover from surgery and minimizing the risk of drug interactions with the anesthetics during the following experiments. During this period the rats had free access to food and water.
On the day of the experiment the rats were connected to a micro-perfusion pump via a swivel and were replaced in the cage where they could move freely within its confinements. The perfusion medium was a Ringer's solution containing (in mmol/I): NaCl; 140, CaCl2; 1.2, KCl; 3.0, MgCl2; 1.0 (Moghaddam and Bunney. Neurochem., 1989, 53; 652-4). The pump was set to a perfusion speed of 2 μl/min and 40 μl sample volume were collected every 20 min.
The rats were perfused for at least 40 min before sampling began. Five fractions of each 20 min were collected and the last three were used for the establishment of the baseline. After collection of baseline fractions, the pharmacological challenge to the dialysis experiment started. Test compounds were administrated by injection (s.c.) in a volume of 5 ml/kg, with 0.9% NaCl (saline) as vehicle.
The analytical method were based on two chromatographic separations dedicated for amines or acids. Two chromatographic systems shared a common auto injector with a 10-port valve and two sample loops for simultaneous injection on the two systems.
The acids were separated by reversed phase chromatography while the amines were separated by reversed phase ion pairing chromatography preceded by a reverse phase separation in a column switching configuration. Three separation columns (Luna C18 (2), dp 3 μm, 2 mm i.d., Phenomenex) of different lengths were used. Electrochemical detection was accomplished on glassy carbon electrodes (MF-1000, Bioanalytical Systems, Inc.)
The aqueous mobile phase (0.6 ml/min) for the acid system contained citric acid (40 mM, dipotassium hydrogen phosphate 10 mM, methanol 8-11% (v/v) and EDTA 0.1 mM. Column length was 30 mm and detection potential relative to Ag/AgCl reference was 0.74V. […]

[3] = 50 μmol/kg s.c., striatum dialysate
[4] = 16.7 μmol/kg s.c., striatum dialysate, read-out: DA Stri ± SEM, maximum effect compared to baseline
[5] = 16.7 μmol/kg s.c., frontal cortex dialysate, Fumarate Salt
[6] = 16.7 μmol/kg s.c., striatum dialysate, Fumarate Salt

Compound	locomotor activity, percent of control means ([1]; 11 μmol/kg s.c.)	locomotor activity, percent of control means ([1]; 33 μmol/kg s.c.)	NA Stri ± SEM, maximum effect compared to baseline ([2]; 16.7 μmol/kg s.c., striatum dialysate)	5-HT FC ± SEM, maximum effect compared to baseline ([2]; 50 μmol/kg s.c., frontal cortex dialysate)	5-HT Stri ± SEM, maximum effect compared to baseline [2, 3]	DA Stri ± SEM, maximum effect compared to baseline [2, 3]	NA Stri ± SEM, maximum effect compared to baseline [2, 3]	response vs control in vivo at 16.7 µmol/kg ([2]; 16.7 μmol/kg s.c., frontal cortex dialysate, read-out: 5-HT FC ± SEM, maximum effect compared to baseline)	response vs control in vivo at 16.7 µmol/kg ([2]; 16.7 μmol/kg s.c., frontal cortex dialysate, read-out: DA FC ± SEM, maximum effect compared to baseline)	response vs control in vivo at 16.7 µmol/kg ([2]; 16.7 μmol/kg s.c., frontal cortex dialysate, read-out: NA FC ± SEM, maximum effect compared to baseline)	response vs control in vivo at 16.7 µmol/kg ([2]; 16.7 μmol/kg s.c., striatum dialysate, read-out: 5-HT Stri ± SEM, maximum effect compared to baseline)	response vs control in vivo at 16.7 µmol/kg [2, 4]	5-HT FC ± SEM, maximum effect compared to baseline [2, 5]	DA FC ± SEM, maximum effect compared to baseline [2, 5]	NA FC ± SEM, maximum effect compared to baseline [2, 5]	5-HT Stri ± SEM, maximum effect compared to baseline [2, 6]	NA Stri ± SEM, maximum effect compared to baseline [2, 6]
Cl.Fc1cccc(C(F)C2CNC2)c1F (single isomer, unassigned; (-)) [Example 1, (−)-3-[(2,3-Difluorophenyl)(Fluoro)Methyl]Azetidine Hydrochloric Acid Salt]	61%	91%	150 ± 30^c percent of control	188 ± 16^c percent of control	184^a percent of control	204 ± 90^b percent of control	145^a percent of control	146 ± 8%	495 ± 58%	688 ± 102%	171 ± 21%	135 ± 19%					
Fc1cc(F)cc(C(F)C2CNC2)c1.O=C(O)/C=C/C(=O)O (single isomer, unassigned; (-)) [Example 3, (−)-3-[(3,5-Difluorophenyl)(Fluoro)Methyl]Azetidine Fumarate Salt]	68%	46%										116 ± 4%	137 ± 16^c percent of control	444 ± 51^c percent of control	534 ± 45^c percent of control	124 ± 6^c percent of control	137^a percent of control
